According to ChEMBL document CHEMBL1914306, “The design, synthesis and biological evaluation of novel URB602 analogues as potential monoacylglycerol lipase inhibitors” (Bioorg Med Chem Lett, 2011):

Experiments:
[1] = molecular target: T1, Monoglyceride lipase (Homo sapiens) (UniProt Q99685); experiment: Inhibition of human recombinant MAGL assessed as remaining activity at 1 uM after 10 mins by spectrophotometry relative to control
T1 sequence (whole entry): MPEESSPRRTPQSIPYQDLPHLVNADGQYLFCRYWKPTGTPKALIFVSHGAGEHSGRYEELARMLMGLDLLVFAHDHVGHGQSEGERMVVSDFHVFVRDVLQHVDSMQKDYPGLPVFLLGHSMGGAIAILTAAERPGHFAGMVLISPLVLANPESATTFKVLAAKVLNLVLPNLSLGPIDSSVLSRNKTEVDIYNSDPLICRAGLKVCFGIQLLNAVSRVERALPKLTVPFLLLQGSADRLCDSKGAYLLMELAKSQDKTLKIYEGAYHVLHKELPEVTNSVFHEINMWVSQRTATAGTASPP

[2] = molecular target: T1, Monoglyceride lipase (Homo sapiens); experiment: Inhibition of human recombinant MAGL assessed as remaining activity at 10 uM after 10 mins by spectrophotometry relative to control
[3] = molecular target: T1, Monoglyceride lipase (Homo sapiens); experiment: Inhibition of human recombinant MAGL assessed as remaining activity at 100 uM after 10 mins by spectrophotometry relative to control
[4] = molecular target: T1, Monoglyceride lipase (Homo sapiens); experiment: Inhibition of MAGL assessed as remaining activity using 4-nitrophenylacetate as substrate at 10 uM relative to control

O=C(Nc1cccc(-c2ccc(Cl)cc2)c1)OC1CCCCC1
Activity [1]: 85%
Activity [2]: 81%
Activity [3]: 81%

O=C(Nc1cccc(-c2ccccc2)c1)OC1CCCCC1
Activity [1]: 93%
Activity [2]: 71%
Activity [3]: 73%
Activity [4]: 84%

S=C(Nc1cccc(-c2ccccc2)c1)OC1CCCCCC1
Activity [1]: 79%
Activity [2]: 83%

O=C(Nc1cccc(-c2ccccc2)c1)OC1CCCCCC1
Activity [1]: 94%
Activity [2]: 71%

CC(C)[C@@H]1CC[C@@H](C)C[C@H]1OC(=O)Nc1cccc(-c2ccccc2)c1
Activity [1]: 106%
Activity [2]: 101%

O=C(Nc1cccc(-c2ccccc2)c1)OC1CCC1
Activity [1]: 97%
Activity [2]: 86%
Activity [3]: 85%

O=C(Nc1cccc(-c2ccccc2)c1)NC1CCCCC1
Activity [1]: 98%
Activity [2]: 79%
Activity [3]: 78%

O=C(Nc1cccc(-c2ccccc2)c1)NC1CCCC1
Activity [1]: 80%
Activity [2]: 73%

O=C(Nc1cccc(-c2ccccc2)c1)NC1CCCCCC1
Activity [1]: 96%
Activity [2]: 80%
Activity [3]: 55%

O=C(Nc1cccc(-c2ccc(O)cc2)c1)OC1CCCCC1
Activity [1]: 83%
Activity [2]: 46%
Activity [3]: 26%

S=C(Nc1cccc(-c2ccccc2)c1)NC1CCCCC1
Activity [1]: 93%
Activity [2]: 76%

O=C(Nc1cccc(-c2ccccc2)c1)OC1CCCCCCC1
Activity [1]: 101%
Activity [2]: 92%

O=C(Nc1cccc(-c2ccccc2)c1)O[C@H]1C[C@H]2CC[C@@H]1C2
Activity [1]: 95%
Activity [2]: 79%

S=C(Nc1cccc(-c2ccccc2)c1)OC1CCCCC1
Activity [1]: 73%
Activity [2]: 83%

O=C(Nc1cccc(-c2ccccc2)c1)OC1CCCC1
Activity [1]: 93%
Activity [2]: 71%
